Assay results reported in patent US20240287138A1, “CYCLIC PEPTIDES FOR INHIBITING TNF RECEPTOR 1 ACTIVITY” (Merck Sharp & Dohme LLC, priority 2023, published 2024).
Numbered stars: 1 amine (or outer) side, 2 acyl side, 3 side chain; on linkers, the order of the positions; unused ones are H or OH. Bridge positions count the residues as written; N and C are the ends. Square brackets hold non-standard residues; d marks the D form. Peptide text beside a SMILES is read from it. Trp(βS-Me,7-OMe) = COc1cccc2c([C@H](C)[C@H](N)C(=O)O)c[nH]c12; Trp(7-Cl) = N[C@@H](Cc1c[nH]c2c(Cl)cccc12)C(=O)O; Phe(4-COOH) = N[C@@H](Cc1ccc(C(=O)O)cc1)C(=O)O; X1 = O=C([C@@H]1CC[C@H](N[*:1])C1)[*:2]; Pip(4-aza) = O=C(O)[C@@H]1CNCCN1; 4Pal = N[C@@H](Cc1ccncc1)C(=O)O; NMeE = CN[C@@H](CCC(=O)O)C(=O)O; αMeS = C[C@](N)(CO)C(=O)O; Nle = CCCC[C@H](N)C(=O)O; Sar = CNCC(=O)O

What was measured:
[1] = target: T1, human soluble TNFR1 (sTNFR1) (Homo sapiens, UniProt P19438); test: Human sTNFR1-peptide displacement assay (LanthaScreen Eu TR-FRET binding assay)
T1 construct: made in house; host or cells: Sf21 (baculovirus)
T1 sequence (P19438 with tags, fused parts or gaps): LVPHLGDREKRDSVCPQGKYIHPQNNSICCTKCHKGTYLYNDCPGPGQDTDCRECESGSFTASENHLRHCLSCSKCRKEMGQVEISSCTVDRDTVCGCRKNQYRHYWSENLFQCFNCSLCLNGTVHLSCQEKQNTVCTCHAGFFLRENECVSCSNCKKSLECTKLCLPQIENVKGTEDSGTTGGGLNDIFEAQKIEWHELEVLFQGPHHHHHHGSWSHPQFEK
How it was run: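 Readout is the 665/615 nm TR-FRET ratio (Eu anti-His donor, streptavidin-Alexa647 acceptor), normalized to DMSO and saturating displacer, fit by Morrison-based five-parameter logistic for Kd^app. His-tagged sTNFR1 (1-211) prebound to 100 nM biotinylated peptide SEQ ID NO.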

human TNFR2 ECD protein = target: T2, human TNFR2 ECD protein (Homo sapiens, UniProt P20333); test: SPR off-target binding (selectivity) to human TNFR2 ECD
T2 construct: HRV 3C protease cleavage site (C); 6His (C, cleaved yes); made in house; host or cells: Sf21 insect cells (baculovirus), secreted
T2 sequence (P20333 23-257): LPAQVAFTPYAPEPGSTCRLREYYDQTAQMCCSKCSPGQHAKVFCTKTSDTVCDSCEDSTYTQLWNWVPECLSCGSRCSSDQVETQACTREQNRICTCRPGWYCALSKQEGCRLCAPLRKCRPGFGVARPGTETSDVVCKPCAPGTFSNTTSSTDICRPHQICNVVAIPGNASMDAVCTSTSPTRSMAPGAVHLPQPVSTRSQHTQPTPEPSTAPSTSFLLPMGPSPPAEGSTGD
How it was run: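 SPR kinetics: peptides over captured avi-biotinylated receptor ECDs, TNFR1 for affinity, TNFR2 run in parallel for off-target binding. Running buffer HEPES pH 7.4 with 150 mM NaCl, 3 mM EDTA, 0.05% P20, 2% DMSO; surface regenerated between analytes. Affinity derived from kon/koff.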

| Structure (SMILES) | IC50 [1] [nM] | Kd [1] [nM] | Kd (human TNFR2 ECD protein) [nM] |
| --- | --- | --- | --- |
| CCCC[C@@H]1NC(=O)[C@@H]2CC[C@@H](C2)NC(=O)[C@H]([C@@H](C)c2c[nH]c3c(OC)cccc23)NC(=O)CN(C)C(=O)[C@H](Cc2ccc(O)cc2)NC(=O)[C@H](Cc2ccc(C(=O)O)cc2)NC(=O)[C@](C)(CO)NC(=O)[C@H](Cc2c[nH]c3c(Cl)cccc23)NC(=O)[C@H](Cc2ccc(C(=O)O)cc2)NC(=O)[C@H](CC(N)=O)NC(=O)[C@H](CCC(=O)O)N(C)C(=O)[C@H](Cc2c[nH]c3ccccc23)NC(=O)[C@@H]2CNCCN2C(=O)[C@H](Cc2ccncc2)NC1=O [SEQ ID NO. 288] (cyclo([4Pal][Pip(4-aza)]W[NMeE]N[Phe(4-COOH)][Trp(7-Cl)][αMeS][Phe(4-COOH)]Y[Sar][Trp(βS-Me,7-OMe)][X1][Nle])) | 0.2 | 0.11 | > 1000 |
| CN1CC(=O)N[C@@H](CC(N)=O)C(=O)N[C@@H](Cc2ccc(O)cc2)C(=O)N[C@@H](Cc2c[nH]c3ccccc23)C(=O)N[C@@H](CO)C(=O)N[C@@H](Cc2ccc(O)cc2)C(=O)N[C@@H](Cc2ccc(O)cc2)C(=O)N(C)CC(=O)N[C@@H](Cc2c[nH]c3ccccc23)C(=O)N[C@H](C(=O)NCC(=O)N[C@@H](CCC(=O)O)C(=O)N[C@@H](CCC(=O)O)C(N)=O)CSCC(=O)N[C@@H](Cc2ccccc2)C(=O)N[C@@H](Cc2ccc(O)cc2)C(=O)N[C@@H](CO)C(=O)N[C@@H](Cc2c[nH]c3ccccc23)C1=O [SEQ ID NO. 289] ({CH2CO}-FYSW[Sar]NYWSYY[Sar]WCGEE-NH2; thioether N-14) | 9.87 |  | > 1000 |
